Laboratory results taken from patent US6737383B1, “Herbicidal oxadiazolidines” (priority 1999, dated 2004).

Columns and labels:
bedstraw = assay: Test B pre/postemergence bedstraw; assay type: in vivo, Galium aparine; conditions: for Plant response rating, Bedstraw: Postemergence
Summary of the method: (§1)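 Herbicidal effect was estimated by eye on a ten-point control scale after plants spent twelve to sixteen days in a greenhouse following soil or foliar treatment. Foliar sprays targeted plants at one to four leaves; all doses were formulated in a non-phytotoxic solvent with surfactant.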

blackgrass = assay: Test B pre/postemergence blackgrass; assay type: in vivo, Alopecurus myosuroides
Summary of the method: as §1

surinam grass = assay: Test B pre/postemergence surinam grass; assay type: in vivo, Brachiaria decumbens
Summary of the method: as §1

cocklebur = assay: Test B pre/postemergence cocklebur; assay type: in vivo, Xanthium strumarium
Summary of the method: as §1

corn = assay: Test B pre/postemergence corn; assay type: in vivo, Zea mays
Summary of the method: as §1

crabgrass = assay: Test B pre/postemergence crabgrass; assay type: in vivo, Digitaria sanguinalis
Summary of the method: as §1

giant foxtail = assay: Test B pre/postemergence giant foxtail; assay type: in vivo, Setaria faberii
Summary of the method: as §1

morningglory = assay: Test B pre/postemergence morningglory; assay type: in vivo, Ipomoea hederacea
Summary of the method: as §1

pigweed = assay: Test B pre/postemergence pigweed; assay type: in vivo, Amaranthus retroflexus; conditions: for Plant response rating, Redroot pigweed: Postemergence
Summary of the method: as §1

rape = assay: Test B pre/postemergence rape; assay type: in vivo, Brassica napus
Summary of the method: as §1

soybean = assay: Test B pre/postemergence soybean; assay type: in vivo, Glycine max; conditions: for Plant response rating, Soybean: Postemergence
Summary of the method: as §1

sugar beet = assay: Test B pre/postemergence sugar beet; assay type: in vivo, Beta vulgaris; conditions: for Plant response rating, Sugarbeets: Postemergence
Summary of the method: as §1

velvetleaf = assay: Test B pre/postemergence velvetleaf; assay type: in vivo, Abutilon theophrasti; conditions: for Plant response rating, Velvetleaf: Postemergence
Summary of the method: as §1

wheat = assay: Test B pre/postemergence wheat; assay type: in vivo, Triticum aestivum; conditions: for Plant response rating, Wheat: Postemergence
Summary of the method: as §1

wild oat = assay: Test B pre/postemergence wild oat; assay type: in vivo, Avena fatua; conditions: for Plant response rating, Wild oats: Postemergence
Summary of the method: as §1

purple nutsedge = assay: Test B pre/postemergence purple nutsedge; assay type: in vivo, Cyperus rotundus
Summary of the method: as §1

[1] = Rate 125 g/ha, scale of 0 to 10 where 0 is no effect and 10 is complete control
[2] = Preemergence, Rate 62 g/ha, scale 0 to 10 (0 no effect, 10 complete control)
[3] = Preemergence, Rate 125 g/ha, scale of 0 to 10 where 0 is no effect and 10 is complete control
[4] = Preemergence, Rate 500 g/ha, scale of 0 to 10 where 0 is no effect and 10 is complete control
[5] = Rate 250 g/ha, scale of 0 to 10 where 0 is no effect and 10 is complete control
[6] = Postemergence, Rate 62 g/ha, scale of 0 to 10, 0 is no effect, 10 is complete control
[7] = Postemergence, Rate 500 g/ha, scale of 0 to 10 where 0 is no effect and 10 is complete control
[8] = Rate 250 g/ha, Postemergence, scale of 0 to 10 where 0 is no effect and 10 is complete control
[9] = Postemergence, Rate 125 g/ha, scale of 0 to 10 where 0 is no effect and 10 is complete control
[10] = Rate 500 g/ha, scale of 0 to 10 where 0 is no effect and 10 is complete control

For `CCC=CCn1c(=O)on(C(=O)N(c2ccccc2)C(C)C)c1=O` [Compound 582], the “Plant response rating, Bedstraw” value (bedstraw; [1]) was 7, the “Bedstraw plant response rating” value (bedstraw; [2]) was 0 and the “Bedstraw plant response rating” value (bedstraw; [3]) was 0. The “Bedstraw plant response rating (0 to 10 scale)” value (bedstraw; Preemergence, Rate 250 g/ha) was 6, the “Bedstraw plant response rating” value (bedstraw; [4]) was 6 and the “Plant response rating, Bedstraw” value (bedstraw; [5]) was 9. The “Blackgrass plant response rating” value (blackgrass; [6]) was 3, the “Plant response rating, Blackgrass” value (blackgrass; [7]) was 7 and the “Blackgrass plant response rating” value (blackgrass; [2]) was 0. For the same molecule, the “Blackgrass plant response rating” value (blackgrass; [3]) was 0, the “Blackgrass plant response rating (0 to 10 scale)” value (blackgrass; Preemergence, Rate 250 g/ha) was 0 and the “Blackgrass plant response rating” value (blackgrass; [4]) was 0. For the same molecule, the “Plant response rating, Blackgrass” value (blackgrass; [8]) was 3, the “B. signalgrass plant response rating” value (surinam grass; [6]) was 0 and the “Plant response rating, B. signalgrass” value (surinam grass; [9]) was 0. The “Plant response rating, B. signalgrass” value (surinam grass; [7]) was 3, the “B. signalgrass plant response rating” value (surinam grass; [2]) was 0 and the “B. signalgrass plant response rating” value (surinam grass; [3]) was 0. For the same molecule, the “B. signalgrass plant response rating (0 to 10 scale, 0 is no effect, 10 is complete control)” value (surinam grass; Preemergence, Rate 250 g/ha) was 2, the “B. signalgrass plant response rating” value (surinam grass; [4]) was 4 and the “Plant response rating, B. signalgrass” value (surinam grass; [8]) was 0. For the same molecule, the “Cocklebur plant response rating” value (cocklebur; [6]) was 0, the “Plant response rating, Cocklebur” value (cocklebur; [9]) was 0 and the “Plant response rating, Cocklebur” value (cocklebur; [7]) was 4. The “Cocklebur plant response rating” value (cocklebur; [2]) was 0, the “Cocklebur plant response rating” value (cocklebur; [3]) was 0 and the “Cocklebur plant response rating (0 to 10 scale)” value (cocklebur; Preemergence, Rate 250 g/ha) was 0. The “Cocklebur plant response rating” value (cocklebur; [4]) was 0, the “Plant response rating, Cocklebur” value (cocklebur; [8]) was 2 and the “Corn plant response rating” value (corn; [6]) was 0. For the same molecule, the “Plant response rating, Corn” value (corn; [9]) was 0, the “Plant response rating, Corn” value (corn; [7]) was 0 and the “Corn plant response rating” value (corn; [2]) was 0. The “Corn plant response rating” value (corn; [3]) was 0, the “Corn plant response rating (0 to 10 scale)” value (corn; Preemergence, Rate 250 g/ha) was 0 and the “Corn plant response rating” value (corn; [4]) was 0. The “Plant response rating, Corn” value (corn; [8]) was 0, the “Crabgrass plant response rating” value (crabgrass; [6]) was 0 and the “Plant response rating, Crabgrass” value (crabgrass; [9]) was 0. The “Plant response rating, Crabgrass” value (crabgrass; [7]) was 3, the “Crabgrass plant response rating” value (crabgrass; [2]) was 0 and the “Crabgrass plant response rating” value (crabgrass; [3]) was 0. The “Crabgrass plant response rating (0 to 10 scale)” value (crabgrass; Preemergence, Rate 250 g/ha) was 0, the “Crabgrass plant response rating” value (crabgrass; [4]) was 7 and the “Plant response rating, Crabgrass” value (crabgrass; [8]) was 3. For the same molecule, the “Giant foxtail plant response rating” value (giant foxtail; [6]) was 3, the “Plant response rating, Giant foxtail” value (giant foxtail; [9]) was 4 and the “Plant response rating, Giant foxtail” value (giant foxtail; [7]) was 7. For the same molecule, the “Giant foxtail plant response rating” value (giant foxtail; [2]) was 0, the “Giant foxtail plant response rating” value (giant foxtail; [3]) was 5 and the “Giant foxtail plant response rating (0 to 10 scale)” value (giant foxtail; Preemergence, Rate 250 g/ha) was 8. For the same molecule, the “Giant foxtail plant response rating” value (giant foxtail; [4]) was 8, the “Plant response rating, Giant foxtail” value (giant foxtail; [8]) was 9 and the “Morningglory plant response rating” value (morningglory; [6]) was 9. For the same molecule, the “Plant response rating, Morningglory” value (morningglory; [9]) was 10, the “Plant response rating, Morningglory” value (morningglory; [7]) was 10 and the “Morningglory plant response rating” value (morningglory; [2]) was 0. For the same molecule, the “Morningglory plant response rating” value (morningglory; [3]) was 0, the “Morningglory plant response rating (0 to 10 scale)” value (morningglory; Preemergence, Rate 250 g/ha) was 0 and the “Morningglory plant response rating” value (morningglory; [4]) was 2. The “Plant response rating, Morningglory” value (morningglory; [8]) was 10, the “Plant response rating, Redroot pigweed” value (pigweed; [1]) was 0 and the “Plant response rating, Redroot pigweed” value (pigweed; [10]) was 7. For the same molecule, the “Redroot pigweed plant response rating” value (pigweed; [2]) was 0, the “Redroot pigweed plant response rating” value (pigweed; [3]) was 0 and the “Redroot pigweed plant response rating (0 to 10 scale)” value (pigweed; Preemergence, Rate 250 g/ha) was 4. For the same molecule, the “Redroot pigweed plant response rating” value (pigweed; [4]) was 9, the “Plant response rating, Redroot pigweed” value (pigweed; [5]) was 7 and the “Rape plant response rating” value (rape; [6]) was 0. For the same molecule, the “Plant response rating, Rape” value (rape; [9]) was 0, the “Plant response rating, Rape” value (rape; [7]) was 3 and the “Rape plant response rating” value (rape; [2]) was 0. The “Rape plant response rating” value (rape; [3]) was 0, the “Rape plant response rating (0 to 10 scale)” value (rape; Preemergence, Rate 250 g/ha) was 0 and the “Rape plant response rating” value (rape; [4]) was 3. For the same molecule, the “Plant response rating, Rape” value (rape; [8]) was 0, the “Plant response rating, Soybean” value (soybean; [1]) was 3 and the “Plant response rating, Soybean” value (soybean; [10]) was 3. For the same molecule, the “Soybean plant response rating” value (soybean; [2]) was 0, the “Soybean plant response rating” value (soybean; [3]) was 0 and the “Soybean plant response rating (0 to 10 scale)” value (soybean; Preemergence, Rate 250 g/ha) was 0. For the same molecule, the “Soybean plant response rating” value (soybean; [4]) was 0, the “Plant response rating, Soybean” value (soybean; [5]) was 3 and the “Plant response rating, Sugarbeets” value (sugar beet; [1]) was 0. For the same molecule, the “Plant response rating, Sugarbeets” value (sugar beet; [10]) was 7, the “Sugarbeets plant response rating” value (sugar beet; [2]) was 0 and the “Sugarbeets plant response rating” value (sugar beet; [3]) was 0. For the same molecule, the “Sugarbeets plant response rating (0 to 10 scale)” value (sugar beet; Preemergence, Rate 250 g/ha) was 0, the “Sugarbeets plant response rating” value (sugar beet; [4]) was 0 and the “Plant response rating, Sugarbeets” value (sugar beet; [5]) was 3. The “Plant response rating, Velvetleaf” value (velvetleaf; [1]) was 0, the “Plant response rating, Velvetleaf” value (velvetleaf; [10]) was 0 and the “Velvetleaf plant response rating” value (velvetleaf; [2]) was 0. The “Velvetleaf plant response rating” value (velvetleaf; [3]) was 0, the “Velvetleaf plant response rating (0 to 10 scale)” value (velvetleaf; Preemergence, Rate 250 g/ha) was 4 and the “Velvetleaf plant response rating” value (velvetleaf; [4]) was 4. For the same molecule, the “Plant response rating, Velvetleaf” value (velvetleaf; [5]) was 0, the “Plant response rating, Wheat” value (wheat; [1]) was 0 and the “Plant response rating, Wheat” value (wheat; [10]) was 0. For the same molecule, the “Wheat plant response rating” value (wheat; [2]) was 0, the “Wheat plant response rating” value (wheat; [3]) was 0 and the “Wheat plant response rating (0 to 10 scale)” value (wheat; Preemergence, Rate 250 g/ha) was 0. The “Wheat plant response rating” value (wheat; [4]) was 0, the “Plant response rating, Wheat” value (wheat; [5]) was 0 and the “Plant response rating, Wild oats” value (wild oat; [1]) was 0. The “Plant response rating, Wild oats” value (wild oat; [10]) was 3, the “Wild oats plant response rating” value (wild oat; [2]) was 0 and the “Wild oats plant response rating” value (wild oat; [3]) was 0. For the same molecule, the “Wild oats plant response rating (0 to 10 scale)” value (wild oat; Preemergence, Rate 250 g/ha) was 0, the “Wild oats plant response rating” value (wild oat; [4]) was 0 and the “Plant response rating, Wild oats” value (wild oat; [5]) was 0. For the same molecule, the “Nutsedge plant response rating” value (purple nutsedge; [6]) was 0, the “Plant response rating, Nutsedge” value (purple nutsedge; [9]) was 0 and the “Plant response rating, Nutsedge” value (purple nutsedge; [7]) was 0. For the same molecule, the “Nutsedge plant response rating” value (purple nutsedge; [2]) was 0, the “Nutsedge plant response rating” value (purple nutsedge; [3]) was 0 and the “Nutsedge plant response rating (0 to 10 scale)” value (purple nutsedge; Preemergence, Rate 250 g/ha) was 0. The “Nutsedge plant response rating” value (purple nutsedge; [4]) was 0.
